Results as given in US12084430B2, “Tricyclic urea compounds as JAK2 V617F inhibitors” (Incyte Corporation, priority 2022, dated 2024).

Columns and labels:
[1] = tested on: TRKA; assay: TRKA enzymatic assay; assay type: biochemical
Protocol: (§1) Example I. TRKA Enzymatic Assay
(§2) The kinase assays were carried out at 24° C. temperature in assay buffer (HEPES 50 mM, pH 7.0, NaN3 0.02%, BSA 0.01%, Orthovanadate 0.1 mM, DTT 1 mM, MgCl2 10 mM) in a final volume of 10 μL. Testing compounds were prepared by serial dilution in DMSO and transferred to the plate wells by ECHO liquid handler (Labcyte) with 0.5% DMSO in the final assay. […]. Reactions were initiated by the addition of 5 μL ATP in assay buffer. The final 10 μL kinase reaction consists of 0.58 nM TRKA, 1 mM ATP, 500 nM TK Substrate-biotin and SEB reagent 62.5 nM in assay buffer. […] After 60 minutes incubation at room temperature, the product activity was determined by measuring the fluorescence at 620 nm and 665 nm on Pherastar microplate reader (BMG Labtech). A ratio is calculated (665/620 nm) for each well. Wells with DMSO only were served as the positive controls and wells containing no ATP were used as negative controls. IC50 determination was performed by fitting the curve of percent control activity versus the log of the compound concentration using the Gene data.

[2] = target: TRKA (Homo sapiens, UniProt P04629); assay: TRKA enzymatic assay; assay type: biochemical; settings: 1 mM ATP
Protocol: as §1, §2

[3] = In vitro intrinsic clearance; assay type: in vitro ADME; settings: human liver microsomes, 1 μM
Protocol: Example G. In Vitro Intrinsic Clearance Protocol
For in vitro metabolic stability experiments, test compounds were incubated with human liver microsomes at 37° C. The incubation mixture contained test compounds (1 μM), NADPH (2 mM), and human liver microsomes (0.5 mg protein/mL) in 100 mM phosphate buffer (pH 7.4). The mixture was pre-incubated for 2 min at 37° C. before the addition of NADPH. Reactions were commenced upon the addition of NADPH and quenched with ice-cold methanol at 0, 10, 20, and 30 min. Terminated incubation mixtures were analyzed using LC-MS/MS system. The analytical system consisted of a Shimadzu LC-30AD binary pump system and SIL-30AC autosampler (Shimadzu Scientific Instruments, Columbia, MD) coupled with a Sciex Triple Quad 6500+ mass spectrometer from Applied Biosystems (Foster City, CA). […] Mobile phase A consisted of 0.1% formic acid in water, and mobile phase B consisted of 0.1% formic acid in acetonitrile. The total LC-MS/MS runtime was 2.75 minutes with a flow rate of 0.75 mL/min. Peak area integrations and peak area ratio calculations were performed using Analyst software (version 1.6.3) from Applied Biosystems.
The in vitro intrinsic clearance, CLint, in vitro, was calculated from the t1/2 of test compound disappearance as CLint, in vitro=(0.693/t1/2)×(1/Cprotein), where Cprotein is the protein concentration during the incubation, and t1/2 was determined by the slope (k) of the log-linear regression analysis of the concentration versus time profiles; thus, t1/2=ln 2/k. The CLint, in vitro values were scaled to the in vivo values for human by using physiologically based scaling factors, hepatic microsomal protein concentrations (45 mg protein/g liver), and liver weights (21 g/kg body weight). The equation CLint=CLint, in vitro×(mg protein/g liver weight)×(g liver weight/kg body weight) was used. The in vivo hepatic clearance (CLH) was then calculated by using CLint and hepatic blood flow, Q (20 mL·min^−1·kg^−1 in humans) in the well-stirred liver model disregarding all binding from CLH=(Q×CLint)/(Q+CLint). The hepatic extraction ratio was calculated as CLH divided by Q.

[4] = tested on: STAT5 (Tyr694) phosphorylation in SET-2 cells; assay: STAT5 (Tyr694) phosphorylation cell based assay; settings: Homo sapiens, pSTAT5, 2 hours, read-out: SET2 IC50
Protocol: Example E. STAT5 (Tyr694) Phosphorylation Cell Based Assay
SET-2 cells was purchased from DSMZ (Germany). RPMI1640 medium, Fetal Bovine Serum and 384-white sold flat-bottom small volume plate were purchased from Thermo Fisher Scientific (Waltham, MA). Phospho-STAT5 (Tyr694) HTRF kit was purchased from Perkin Elmer (Waltham, MA).
SET-2 cells were cultured in RPMI media with 20% FBS at 37° C. in humidified incubator supplied with 5% CO2. On the day of assay, the cells were centrifuged to remove the culture media and resuspended with prewarmed RPMI with 10% FBS. Testing compounds were prepared by serial dilution in DMSO and 50 nL/well test compounds were transferred to the 384 white low volume cell culture plate (Greiner Bio-one) by ECHO liquid handler (Labcyte). The cells were then dispensed with Multidrop (Thermo Fisher, Waltham, MA) at 10 μL/well (7×10^6 cells/mL) with 0.5% DMSO in the final assay. After the treated cells were incubated for 2 hours at 37° C./5% CO2 incubator, 4 μL/well supplemented lysis buffer (100× blocking buffer diluted 25 fold in 4× lysis buffer, Perkin Elmer) were added and incubated at room temperature for 90 min on orbital shaker at 600 rpm. Phospho-STAT5 Cryptate antibody and Phospho-STAT5 d2 antibody (1:1 vol/vol) were premixed and diluted 20 fold with in the detection buffer (Perkin Elmer). 4 μL of the premixed antibody solution were added to each well followed with 24 hours incubation at room temperature on orbital shaker at 600 rpm. The product activity was determined by measuring the fluorescence at 620 nm and 665 nm on Pherastar microplate reader (BMG Labtech). A ratio is calculated (665/620) for each well. Wells with DMSO only served as the positive controls and wells containing high concentration of control compound were used as negative controls. IC50 determination was performed by fitting the curve of percent control activity versus the log of the compound concentration using the GraphPad Prism 7.0 software.

Sequence of TRKA (Homo sapiens, UniProt P04629) (P04629 33-796, species assumed): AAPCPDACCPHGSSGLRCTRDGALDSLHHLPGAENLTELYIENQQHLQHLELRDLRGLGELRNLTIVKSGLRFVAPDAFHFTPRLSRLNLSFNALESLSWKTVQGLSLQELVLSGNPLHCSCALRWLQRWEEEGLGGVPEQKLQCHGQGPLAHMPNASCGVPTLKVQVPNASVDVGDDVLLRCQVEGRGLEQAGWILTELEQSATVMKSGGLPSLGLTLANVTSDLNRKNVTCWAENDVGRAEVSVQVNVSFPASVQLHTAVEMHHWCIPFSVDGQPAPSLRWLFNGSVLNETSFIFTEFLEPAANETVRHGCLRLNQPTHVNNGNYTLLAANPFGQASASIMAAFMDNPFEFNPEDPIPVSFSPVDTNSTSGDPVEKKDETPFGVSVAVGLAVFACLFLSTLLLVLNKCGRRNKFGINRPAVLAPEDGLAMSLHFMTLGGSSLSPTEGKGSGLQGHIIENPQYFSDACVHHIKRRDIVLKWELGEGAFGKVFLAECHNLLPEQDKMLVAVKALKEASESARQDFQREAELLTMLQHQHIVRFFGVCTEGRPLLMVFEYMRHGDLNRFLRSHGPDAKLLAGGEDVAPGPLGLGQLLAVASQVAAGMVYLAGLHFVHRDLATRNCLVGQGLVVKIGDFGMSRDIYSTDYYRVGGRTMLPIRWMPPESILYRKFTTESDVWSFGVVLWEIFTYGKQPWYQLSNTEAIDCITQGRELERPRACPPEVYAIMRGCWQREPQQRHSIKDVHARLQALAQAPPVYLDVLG

| SMILES | Selectivity TRKA/JH2 V617F [1] | IC50 [2] | h-IntCL [3] | IC50 [4] |
| --- | --- | --- | --- | --- |
| [2H]C([2H])([2H])n1cc(-c2[nH]c3ncc4c(c3c2-c2ccc3c(cnn3C([2H])([2H])[2H])c2)n([C@@H]2CC[C@@H](NC(=O)OC)C2)c(=O)n4C([2H])([2H])[2H])c(F)n1 [Example 6, Methyl ((1R,3R)-3-(7-(3-fluoro-1-(methyl-d3)-1H-pyrazol-4-yl)-3-(methyl-d3)-8-(1-(methyl-d3)-1H-indazol-5-yl)-2-oxo-3,6-dihydroimidazo[4,5-d]pyrrolo[2,3-b]pyridin-1(2H)-yl)cyclopentyl)carbamate] | ****** (selectivity of >12500-fold) | > 2500 nM | ‡ ‡ (h-IntCL of ≥0.7 L/h/kg to ≤1 L/h/kg) | ≤ 300 nM |
| COC(=O)N[C@@H]1CC[C@@H](n2c(=O)n(C)c3cnc4[nH]c(-c5cn(C)nc5OC)c(-c5ccccc5)c4c32)C1 [Example 2, Methyl ((1R,3R)-3-(7-(3-methoxy-1-methyl-1H-pyrazol-4-yl)-3-methyl-2-oxo-8-phenyl-3,6-dihydroimidazo[4,5-d]pyrrolo[2,3-b]pyridin-1(2H)-yl)cyclopentyl)carbamate] | **** (selectivity of >1750-fold to ≤5000-fold) | > 2500 nM | ‡ ‡ (h-IntCL of ≥0.7 L/h/kg to ≤1 L/h/kg) | 300 to 800 nM |
| [2H]C([2H])([2H])n1cc(-c2[nH]c3ncc4c(c3c2-c2ccc(F)cc2)n([C@@H]2CC[C@@H](NC(=O)OC)C2)c(=O)n4C([2H])([2H])[2H])c(F)n1 [Example 7, Methyl ((1R,3R)-3-(7-(3-fluoro-1-(methyl-d3)-1H-pyrazol-4-yl)-8-(4-fluorophenyl)-3-(methyl-d3)-2-oxo-3,6-dihydroimidazo[4,5-d]pyrrolo[2,3-b]pyridin-1(2H)-yl)cyclopentyl)carbamate] | ***** (selectivity of >5000-fold to ≤12500-fold) | > 2500 nM | ‡ (h-IntCL of <0.7 L/h/kg) | 300 to 800 nM |
| [2H]C([2H])([2H])n1c(=O)n([C@@H]2CC[C@@H](NC(=O)OC)C2)c2c3c(-c4ccc5c(c4)COC5(C)C)c(-c4cn(C([2H])([2H])C([2H])([2H])[2H])nc4F)[nH]c3ncc21 [Example 19, Methyl ((1R,3R)-3-(8-(1,1-dimethyl-1,3-dihydroisobenzofuran-5-yl)-7-(1-(ethyl-d5)-3-fluoro-1H-pyrazol-4-yl)-3-(methyl-d3)-2-oxo-3,6-dihydroimidazo[4,5-d]pyrrolo[2,3-b]pyridin-1(2H)-yl)cyclopentyl)carbamate] | ****** (selectivity of >12500-fold) | > 2500 nM | ‡ ‡ (h-IntCL of ≥0.7 L/h/kg to ≤1 L/h/kg) | ≤ 300 nM |
| COC(=O)N[C@@H]1CC[C@@H](n2c(=O)n(C)c3cnc4[nH]c(-c5cn(C)nc5OC)c(-c5ccc(OC)c(F)c5)c4c32)C1 [Example 4, Methyl ((1R,3R)-3-(8-(3-fluoro-4-methoxyphenyl)-7-(3-methoxy-1-methyl-1H-pyrazol-4-yl)-3-methyl-2-oxo-3,6-dihydroimidazo[4,5-d]pyrrolo[2,3-b]pyridin-1(2H)-yl)cyclopentyl)carbamate] | ***** (selectivity of >5000-fold to ≤12500-fold) | > 2500 nM | ‡ (h-IntCL of <0.7 L/h/kg) | 300 to 800 nM |
| [2H]C([2H])([2H])n1cc(-c2[nH]c3ncc4c(c3c2-c2ccc3c(cnn3C(C)C)c2)n([C@@H]2CC[C@@H](NC(=O)OC)C2)c(=O)n4C)c(F)n1 [Example 16, Methyl ((1R,3R)-3-(7-(3-fluoro-1-(methyl-d3)-1H-pyrazol-4-yl)-8-(1-isopropyl-1H-indazol-5-yl)-3-methyl-2-oxo-3,6-dihydroimidazo[4,5-d]pyrrolo[2,3-b]pyridin-1(2H)-yl)cyclopentyl)carbamate] | ****** (selectivity of >12500-fold) | > 2500 nM | ‡ ‡ (h-IntCL of ≥0.7 L/h/kg to ≤1 L/h/kg) | ≤ 300 nM |
| COc1nn(C)cc1-c1[nH]c2ncc3c(c2c1-c1ccc2c(cnn2C)c1)n(C1CCOCC1)c(=O)n3C [A, reference compound] | ** (selectivity of >500-fold to ≤1500-fold) | 1250 to 2500 nM | ‡ ‡ ‡ (h-IntCL of >1 L/h/kg) | > 800 nM |
| [2H]C([2H])([2H])n1cc(-c2[nH]c3ncc4c(c3c2-c2ccc3c(cnn3C(C)C)c2)n([C@@H]2CC[C@@H](NC(=O)OC)C2)c(=O)n4C([2H])([2H])[2H])c(F)n1 [Example 13, Methyl ((1R,3R)-3-(7-(3-fluoro-1-(methyl-d3)-1H-pyrazol-4-yl)-8-(1-isopropyl-1H-indazol-5-yl)-3-(methyl-d3)-2-oxo-3,6-dihydroimidazo[4,5-d]pyrrolo[2,3-b]pyridin-1(2H)-yl)cyclopentyl)carbamate] | ****** (selectivity of >12500-fold) | > 2500 nM | ‡ ‡ (h-IntCL of ≥0.7 L/h/kg to ≤1 L/h/kg) | ≤ 300 nM |
| COC(=O)N[C@@H]1CC[C@@H](n2c(=O)n(C)c3cnc4[nH]c(-c5cn(C)nc5OC)c(-c5cccc(F)c5)c4c32)C1 [Example 3, Methyl ((1R,3R)-3-(8-(3-fluorophenyl)-7-(3-methoxy-1-methyl-1H-pyrazol-4-yl)-3-methyl-2-oxo-3,6-dihydroimidazo[4,5-d]pyrrolo[2,3-b]pyridin-1(2H)-yl)cyclopentyl)carbamate] | **** (selectivity of >1750-fold to ≤5000-fold) | 1250 to 2500 nM | ‡ ‡ (h-IntCL of ≥0.7 L/h/kg to ≤1 L/h/kg) | 300 to 800 nM |
| [2H]C([2H])([2H])n1cc(-c2[nH]c3ncc4c(c3c2-c2ccc3c(cnn3CC(F)F)c2)n([C@@H]2CC[C@@H](NC(=O)OC)C2)c(=O)n4C)c(F)n1 [Example 18, Methyl ((1R,3R)-3-(8-(1-(2,2-difluoroethyl)-1H-indazol-5-yl)-7-(3-fluoro-1-(methyl-d3)-1H-pyrazol-4-yl)-3-methyl-2-oxo-3,6-dihydroimidazo[4,5-d]pyrrolo[2,3-b]pyridin-1(2H)-yl)cyclopentyl)carbamate] | ****** (selectivity of >12500-fold) | > 2500 nM | ‡ ‡ (h-IntCL of ≥0.7 L/h/kg to ≤1 L/h/kg) | ≤ 300 nM |
